{
  "source": "patent US20210112813A1",
  "about": "“HERBICIDAL COMPOSITION AND USE THEREOF” (NANTONG JIANGSHAN AGROCHEMICAL & CHEMICALS CO., LTD., priority 2019, published 2021)",
  "assay_type_in_all_cases": "in vivo",
  "key": {"Bristlegrass [1]": {"tested_on": "Bristlegrass", "assay": "Greenhouse pot test, pre-emergence soil treatment, visual control effect 30 days after treatment, Gowing method", "description": "(§1) In the present application, indoor combined action of the compound of herbicide active component A and B on weeds was measured to determine the combined effect of the composition on weeds, wherein the structure of the active component A was as follows:\n(§2) The weed cultivation method was as follows: quantitative weed seeds abutilon and bristlegrass were respectively sown in a paper cup filled with nutrient soil with a diameter of 7 cm, and then cultivated in the greenhouse after covering the soil, suppressing and watering. The post-emergence stem and leaf treatment was performed when the grass weeds grew to 5-7 leaf stage, broad-leaved weeds grew to 6-8 leaf stage; the pre-emergence soil treatment was performed the second day after sowing, and the early post-emergence treatment was performed after sowing and before emergence; the experiment was repeated 3 times. After the treatment and drug solution naturally dried, the weeds were placed in the greenhouse to be managed according to conventional methods. According to the suppression or death of the weeds, a visual control effect investigation was conducted 30 days after the treatment. The application adopted the Gowing method to evaluate the combined effect of the proposed composition.\n(§3) X—Weed control effect when the amount of herbicide component A is P;\n(§4) Y—Weed control effect when the amount of herbicide component B is Q;\n(§5) E0—Theoretical control effect when the amount of herbicide component A is […];\n(§6) E—The measured control effect after the herbicide component A and the herbicide component B are mixed according to the above ratio.\n(§7) When E−E0>10%, it is synergism; when E−E0<−10%, it is antagonism; when E−E0 value is between ±10%, it is addition."}, "Abutilon [2]": {"tested_on": "Abutilon", "assay": "Greenhouse pot test, pre-emergence soil treatment, visual control effect 30 days after treatment, Gowing method", "description": "as §1, §2, §3, §4, §5, §6, §7"}, "Bristlegrass [3]": {"tested_on": "Bristlegrass", "assay": "Field plot test, non-cultivated weeds, early post-emergence", "description": "(§8) The present application also conducted a medicinal efficacy test on weeds on the formulation examples containing herbicide active component A and active component B by the field plot test method, and clarified the control effect of the composition on non-cultivated weeds.\n(§9) According to the different components of different formulation examples, pre-emergence soil treatment, early post-emergence and post-emergence stem and leaf spray treatment were carried out respectively. The spraying device was Singapore Linong HD400 hand-operating knapsack sprayer (No. H17001), working pressure: […], spray rate: 640 mL/min, adjustable cone spraying nozzle (325787), spraying nozzle height: 0.5 m, spray width: 0.85 m, walking speed: about 16.7 m/min, and spray volume: […];"}, "Amaranthusretroflexus [4]": {"tested_on": "Amaranthusretroflexus", "assay": "Field plot test, non-cultivated weeds, early post-emergence", "description": "as §8, §9"}, "Echinochloacrusgalli [5]": {"tested_on": "Echinochloacrusgalli", "assay": "Field plot test, non-cultivated weeds, early post-emergence", "description": "as §8, §9"}, "Abutilon [6]": {"tested_on": "Abutilon", "assay": "Field plot test, non-cultivated weeds, early post-emergence", "description": "as §8, §9"}, "Bristlegrass [7]": {"tested_on": "Bristlegrass", "assay": "Greenhouse pot test, post-emergence stem and leaf treatment, visual control effect 30 days after treatment, Gowing method", "description": "as §1, §2, §3, §4, §5, §6, §7"}, "Abutilon [8]": {"tested_on": "Abutilon", "assay": "Greenhouse pot test, post-emergence stem and leaf treatment, visual control effect 30 days after treatment, Gowing method", "description": "as §1, §2, §3, §4, §5, §6, §7"}, "Bristlegrass [9]": {"tested_on": "Bristlegrass", "assay": "Field plot test, non-cultivated weeds, post-emergence stem and leaf spray", "settings": "Table 10, dose 100 ga.i./hm^2", "description": "as §8, §9"}, "Amaranthusretroflexus [10]": {"tested_on": "Amaranthusretroflexus", "assay": "Field plot test, non-cultivated weeds, post-emergence stem and leaf spray", "settings": "Table 10, dose 100 ga.i./hm^2", "description": "as §8, §9"}, "Echinochloacrusgalli [11]": {"tested_on": "Echinochloacrusgalli", "assay": "Field plot test, non-cultivated weeds, post-emergence stem and leaf spray", "settings": "Table 10, dose 100 ga.i./hm^2", "description": "as §8, §9"}, "Abutilon [12]": {"tested_on": "Abutilon", "assay": "Field plot test, non-cultivated weeds, post-emergence stem and leaf spray", "settings": "Table 10, dose 100 ga.i./hm^2", "description": "as §8, §9"}, "Amaranthusretroflexus [13]": {"tested_on": "Amaranthusretroflexus", "assay": "Greenhouse pot test (treatment timing not given, Table 7), visual control effect, Gowing method"}, "Bristlegrass [14]": {"tested_on": "Bristlegrass", "assay": "Greenhouse pot test (treatment timing not given, Tables 6 and 7), visual control effect, Gowing method", "description": "as §1, §2, §3, §4, §5, §6, §7"}, "Abutilon [15]": {"tested_on": "Abutilon", "assay": "Greenhouse pot test (treatment timing not given, Table 6), visual control effect, Gowing method", "description": "as §1, §2, §3, §4, §5, §6, §7"}},
  "data": [
    {"molecule": "CCc1cnc(C2=NC(C)(C(C)C)C(=O)N2)c(C(=O)O)c1", "note": "(centres unmarked) [Imazethapyr]", "values": [
      {"measurement": "Measured value E", "setting": "Bristlegrass [1]; Table 4, dose 45 ga.i./hm^2", "value": 30, "unit": "%"},
      {"measurement": "Measured value E", "setting": "Bristlegrass [1]; Table 4, dose 90 ga.i./hm^2", "value": 45, "unit": "%"},
      {"measurement": "Measured value E", "setting": "Abutilon [2]; Table 4, dose 45 ga.i./hm^2", "value": 5, "unit": "%"},
      {"measurement": "Measured value E", "setting": "Abutilon [2]; Table 4, dose 90 ga.i./hm^2", "value": 25, "unit": "%"},
      {"measurement": "Control effect, Bristlegrass", "setting": "Bristlegrass [3]; Table 9, dose 100 ga.i./hm^2", "value": 50},
      {"measurement": "Control effect, Amaranthusretroflexus", "setting": "Amaranthusretroflexus [4]; Table 9, dose 100 ga.i./hm^2", "value": 70},
      {"measurement": "Control effect, Echinochloacrusgalli", "setting": "Echinochloacrusgalli [5]; Table 9, dose 100 ga.i./hm^2", "value": 60},
      {"measurement": "Control effect, Abutilon", "setting": "Abutilon [6]; Table 9, dose 100 ga.i./hm^2", "value": 45},
      {"measurement": "Measured value E", "setting": "Bristlegrass [7]; Table 5, dose 22.5 ga.i./hm^2", "value": 45, "unit": "%"},
      {"measurement": "Measured value E", "setting": "Bristlegrass [7]; Table 5, dose 45 ga.i./hm^2", "value": 50, "unit": "%"},
      {"measurement": "Measured value E", "setting": "Abutilon [8]; Table 5, dose 22.5 ga.i./hm^2", "value": 10, "unit": "%"},
      {"measurement": "Measured value E", "setting": "Abutilon [8]; Table 5, dose 45 ga.i./hm^2", "value": 20, "unit": "%"}
    ]},
    {"molecule": "Cn1nc(C(F)(F)F)c(CS(=O)(=O)C2=NOC(C)(C)C2)c1OC(F)F", "note": "[Pyroxasulfone]", "values": [
      {"measurement": "Measured value E", "setting": "Bristlegrass [1]; Table 4, dose 90 ga.i./hm^2", "value": 60, "unit": "%"},
      {"measurement": "Measured value E", "setting": "Bristlegrass [1]; Table 4, dose 180 ga.i./hm^2", "value": 75, "unit": "%"},
      {"measurement": "Measured value E", "setting": "Abutilon [2]; Table 4, dose 90 ga.i./hm^2", "value": 40, "unit": "%"},
      {"measurement": "Measured value E", "setting": "Abutilon [2]; Table 4, dose 180 ga.i./hm^2", "value": 55, "unit": "%"},
      {"measurement": "Control effect, Bristlegrass", "setting": "Bristlegrass [3]; Table 9, dose 200 ga.i./hm^2", "value": 35},
      {"measurement": "Control effect, Amaranthusretroflexus", "setting": "Amaranthusretroflexus [4]; Table 9, dose 200 ga.i./hm^2", "value": 60},
      {"measurement": "Control effect, Echinochloacrusgalli", "setting": "Echinochloacrusgalli [5]; Table 9, dose 200 ga.i./hm^2", "value": 15},
      {"measurement": "Control effect, Abutilon", "setting": "Abutilon [6]; Table 9, dose 200 ga.i./hm^2", "value": 30},
      {"measurement": "Measured value E", "setting": "Bristlegrass [7]; Table 5, dose 45 ga.i./hm^2", "value": 70, "unit": "%"},
      {"measurement": "Measured value E", "setting": "Bristlegrass [7]; Table 5, dose 90 ga.i./hm^2", "value": 85, "unit": "%"},
      {"measurement": "Measured value E", "setting": "Abutilon [8]; Table 5, dose 45 ga.i./hm^2", "value": 50, "unit": "%"},
      {"measurement": "Measured value E", "setting": "Abutilon [8]; Table 5, dose 90 ga.i./hm^2", "value": 65, "unit": "%"}
    ]},
    {"molecule": "Acetofluran", "values": [
      {"measurement": "Control effect, Bristlegrass", "setting": "Bristlegrass [9]", "value": 55},
      {"measurement": "Control effect, Amaranthusretroflexus", "setting": "Amaranthusretroflexus [10]", "value": 75},
      {"measurement": "Control effect, Echinochloacrusgalli", "setting": "Echinochloacrusgalli [11]", "value": 70},
      {"measurement": "Control effect, Abutilon", "setting": "Abutilon [12]", "value": 75},
      {"measurement": "Measured value E", "setting": "Amaranthusretroflexus [13]; dose 60 ga.i./hm^2", "value": 35, "unit": "%"},
      {"measurement": "Measured value E", "setting": "Amaranthusretroflexus [13]; dose 90 ga.i./hm^2", "value": 55, "unit": "%"},
      {"measurement": "Measured value E", "setting": "Bristlegrass [14]; Table 7, dose 60 ga.i./hm^2", "value": 5, "unit": "%"},
      {"measurement": "Measured value E", "setting": "Bristlegrass [14]; Table 7, dose 90 ga.i./hm^2", "value": 30, "unit": "%"}
    ]},
    {"molecule": "CCOc1cc(Oc2ccc(C(F)(F)F)cc2Cl)ccc1[N+](=O)[O-]", "note": "[Oxyfluorfen]", "values": [
      {"measurement": "Control effect, Bristlegrass", "setting": "Bristlegrass [9]", "value": 65},
      {"measurement": "Control effect, Amaranthusretroflexus", "setting": "Amaranthusretroflexus [10]", "value": 80},
      {"measurement": "Control effect, Echinochloacrusgalli", "setting": "Echinochloacrusgalli [11]", "value": 85},
      {"measurement": "Control effect, Abutilon", "setting": "Abutilon [12]", "value": 80},
      {"measurement": "Measured value E", "setting": "Amaranthusretroflexus [13]; dose 22.5 ga.i./hm^2", "value": 30, "unit": "%"},
      {"measurement": "Measured value E", "setting": "Amaranthusretroflexus [13]; dose 45 ga.i./hm^2", "value": 60, "unit": "%"},
      {"measurement": "Measured value E", "setting": "Bristlegrass [14]; Table 7, dose 22.5 ga.i./hm^2", "value": 15, "unit": "%"},
      {"measurement": "Measured value E", "setting": "Bristlegrass [14]; Table 7, dose 45 ga.i./hm^2", "value": 50, "unit": "%"}
    ]},
    {"molecule": "CP(=O)(O)CC[C@H](N)C(=O)O.N", "note": "[Glufosinate-P-ammonium]", "values": [
      {"measurement": "Measured value E", "setting": "Abutilon [15]; dose 30 ga.i./hm^2", "value": 45, "unit": "%"},
      {"measurement": "Measured value E", "setting": "Abutilon [15]; dose 120 ga.i./hm^2", "value": 65, "unit": "%"},
      {"measurement": "Control effect, Bristlegrass", "setting": "Bristlegrass [9]", "value": 45},
      {"measurement": "Control effect, Amaranthusretroflexus", "setting": "Amaranthusretroflexus [10]", "value": 80},
      {"measurement": "Control effect, Echinochloacrusgalli", "setting": "Echinochloacrusgalli [11]", "value": 60},
      {"measurement": "Control effect, Abutilon", "setting": "Abutilon [12]", "value": 70},
      {"measurement": "Measured value E", "setting": "Bristlegrass [14]; Table 6, dose 30 ga.i./hm^2", "value": 40, "unit": "%"},
      {"measurement": "Measured value E", "setting": "Bristlegrass [14]; Table 6, dose 120 ga.i./hm^2", "value": 65, "unit": "%"}
    ]},
    {"molecule": "CP(=O)(O)CCC(N)C(=O)O", "note": "(centres unmarked) [Glufosinate-ammonium]", "values": [
      {"measurement": "Measured value E", "setting": "Abutilon [15]; dose 30 ga.i./hm^2", "value": 40, "unit": "%"},
      {"measurement": "Measured value E", "setting": "Abutilon [15]; dose 120 ga.i./hm^2", "value": 60, "unit": "%"},
      {"measurement": "Control effect, Bristlegrass", "setting": "Bristlegrass [9]", "value": 50},
      {"measurement": "Control effect, Amaranthusretroflexus", "setting": "Amaranthusretroflexus [10]", "value": 70},
      {"measurement": "Control effect, Echinochloacrusgalli", "setting": "Echinochloacrusgalli [11]", "value": 60},
      {"measurement": "Control effect, Abutilon", "setting": "Abutilon [12]", "value": 65},
      {"measurement": "Measured value E", "setting": "Bristlegrass [14]; Table 6, dose 30 ga.i./hm^2", "value": 30, "unit": "%"},
      {"measurement": "Measured value E", "setting": "Bristlegrass [14]; Table 6, dose 120 ga.i./hm^2", "value": 55, "unit": "%"}
    ]}
  ]
}
